One assay concerns SARS-CoV-2. As to the kind of experiment: Cytopathic effect inhibition assay in VERO-CCL81 cells. In kind it is cell-based. To be noted: for CPE inhibition (%): VERO CCL81.
The subject of the next assay is LC-HK2 cells. As to the kind of experiment: Fluorescence microscopy, S-protein vesicle size in infected LC-HK2 cells. It counts as cell-based, human. To be noted: 1.5 µM, versus control. The procedure: LC-HK2 was cultivated on coverslips (13 mm diameter) to approximately 80% confluence. The cells were pre-treated for 2 h with 1.5 µM of S-Calpeptin diluted in DMEM supplemented with 2.5% FBS. The compounds were removed, and SARS-CoV-2 strain diluted in DMEM supplemented with 2.5% FBS was added to LC-HK2 cells at M.O.I of 0.05, allowing absorption for 1 h. The viral inoculum was removed, and cells were gently washed with PBS without calcium and magnesium. The cells were incubated in the continued presence of 1.5 µM of S-Calpeptin diluted in DMEM supplemented with 2.5% FBS and were examined by fluorescence microscopy at the time points 32, 40, 48, 56, 64 and 72 h post-infection.
For this purpose, the cells were fixed and permeabilized with 3.7% formaldehyde solution (Sigma-Aldrich, F1635) containing 0.2% Triton X-100 in PBS 1×. […] The images were captured using fluorescence range intensity adjusted identically within each experimental series.
Vesicles size quantifications were obtained from 2D maximum projections of Z stacks exported as grayscale TIFs (16-bit depth) using Automated Image Analysis in Zen 2.6 blue software (ZEISS). […]
In the Fluorescence microscopy evaluation, the P-values were generated by unpaired t-test using GraphPad Prism version 8.00 (La Jolla, CA, USA, www.graphpad.com). […]

A further assay deals with T1, CatL (Homo sapiens, UniProt P07711).
T1 construct: made in house
Briefly: Reversibility of covalent cathepsin inhibition (CatL, 60 min incubation). To be noted: 1 nM CatL, 1–80 nM inhibitor, 37 °C. In kind it is biochemical. The source says:
We observed no increase in relative inhibition over time, thus concluding that the covalent bond between cathepsins and inhibitors is reversible.

Results on one compound are retold here after publication PMC10584882 (Communications Biology, 2023).

Where “and” joins values, the source holds several entries; their conditions need not be identical. Identical values can stand only once.

T1 sequence (P07711 114-333): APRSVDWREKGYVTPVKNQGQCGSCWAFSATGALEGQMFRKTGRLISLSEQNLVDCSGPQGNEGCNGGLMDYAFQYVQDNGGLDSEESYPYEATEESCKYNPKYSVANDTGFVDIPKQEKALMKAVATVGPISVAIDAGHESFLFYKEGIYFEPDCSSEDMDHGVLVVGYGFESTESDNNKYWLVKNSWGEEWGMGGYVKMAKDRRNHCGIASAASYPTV

The inhibition is the relative decrease from the control value, in per cent. In general, EC50 refers to the midpoint of the concentration-response curve. In the case of `CCCC[C@@H](C=O)NC(=O)[C@H](CC(C)C)NC(=O)OCc1ccccc1` [Calpeptin, reference compound], the inhibition at 0.3125 µM with SARS-CoV-2 (Severe acute respiratory syndrome coronavirus 2, VERO CCL81, 0.3125 μM, two experiments, read-out: CPE inhibition (%)) stood at 26.9%. Further, in the assay with SARS-CoV-2 (Severe acute respiratory syndrome coronavirus 2, VERO CCL81, 0.625 μM, two experiments, read-out: CPE inhibition (%)), the inhibition at 0.625 µM is 31.8%. Also, in the assay with SARS-CoV-2 (Severe acute respiratory syndrome coronavirus 2, VERO CCL81, 1.25 μM, two experiments, read-out: CPE inhibition (%)), the inhibition at 1.25 µM amounted to 41.2%. Moreover, in the assay with SARS-CoV-2 (Severe acute respiratory syndrome coronavirus 2, VERO CCL81, 2.5 μM, two experiments, read-out: CPE inhibition (%)), the inhibition at 2.5 µM was found to be 49.3%. Besides, the inhibition at 5 µM with SARS-CoV-2 (Severe acute respiratory syndrome coronavirus 2, VERO CCL81, 5 μM, two experiments, read-out: CPE inhibition (%)) came to 61.9%. In addition, in the assay on SARS-CoV-2 (Severe acute respiratory syndrome coronavirus 2, VERO CCL81, 10 μM, two experiments, read-out: CPE inhibition (%)), the inhibition at 10 µM turned out to be 64.6%. Further, in the assay on SARS-CoV-2 (Severe acute respiratory syndrome coronavirus 2, VERO-CCL81, CellTiter-Glo, 48 h post-infection, read-out: CPE inhibition EC50), the concentration giving a half-maximal response (EC50) was 400 nM. Besides, the “CPE inhibition (%)” value in the assay with SARS-CoV-2 (0.1563 μM, two experiments) is 12.75% and 5.21%; in the assay with SARS-CoV-2 (0.3125 μM, two experiments) it was 21.14%; with SARS-CoV-2 (0.625 μM, two experiments), 29.81%; with SARS-CoV-2 (1.25 μM, two experiments), 49.13%; with SARS-CoV-2 (2.5 μM, two experiments) it was 33.89%; in the assay with SARS-CoV-2 (5 μM, two experiments), 61.52%. In the assay with SARS-CoV-2 (10 μM, two experiments), the “CPE inhibition (%)” value came to 53.9%. In addition, in the assay on LC-HK2 cells, the “impact on vesicle morphology / S-protein vesicle size” value is “no substantial impact on vesicle morphology”. Further, the “reversibility of covalent bond to cathepsin” value at CatL is given as “reversible”.
